For 3 molecules, IC50 and viability, T/C results are on record in PubChem BioAssay AID1963866 (Molecular Pharmacology Branch, DTP, NCI, 2024).

In this assay the test system is PDC KRAS tumor spheroids with HUVEC/MSC, viability. Put plainly: Anticancer human tumor 349418-098-R-PDC patient-derived lung adenocarcinoma cell line growth inhibition [KRAS2]. The note with it: for viability, T/C: stronger effect = lower value. The method in brief:
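Combination screen of spheroid viability in tumor-cell co-cultures with endothelial (HUVEC) and mesenchymal stem cell stroma. Each agent was tested in half-log dilutions, topping at clinical Cmax or at 10 microM without a known Cmax.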

Where [1] appears, read: curve of first compound, second compound 0.1 µM.
[2] abbreviates: curve of first compound, second compound 0.316 µM.
Where [3] appears, read: curve of first compound, second compound 1 µM.
Setting [4] is: curve of first compound, second compound 3.16 µM.
The mark [5] stands for this setting: curve of first compound, second compound 10 µM.
The mark [6] stands for this setting: second compound 0.1 µM, first compound 0.0316 µM.
The mark [7] stands for this setting: second compound 0.1 µM, first compound 0.1 µM.
Setting [8] is: second compound 0.1 µM, first compound 0.316 µM.
The mark [9] stands for this setting: second compound 0.1 µM, first compound 1 µM.
The mark [10] stands for this setting: second compound 0.1 µM, first compound 3.16 µM.
Where [11] appears, read: second compound 0.1 µM, first compound 10 µM.
[12] abbreviates: second compound 0.316 µM, first compound 0.0316 µM.
Where [13] appears, read: second compound 0.316 µM, first compound 0.1 µM.
[14] abbreviates: second compound 0.316 µM, first compound 0.316 µM.
The mark [15] stands for this setting: second compound 0.316 µM, first compound 1 µM.
Setting [16] is: second compound 0.316 µM, first compound 3.16 µM.
Setting [17] is: second compound 0.316 µM, first compound 10 µM.
Setting [18] is: second compound 1 µM, first compound 0.0316 µM.
The mark [19] stands for this setting: second compound 1 µM, first compound 0.1 µM.
Setting [20] is: second compound 1 µM, first compound 0.316 µM.
Where [21] appears, read: second compound 1 µM, first compound 1 µM.
The mark [22] stands for this setting: second compound 1 µM, first compound 3.16 µM.
The mark [23] stands for this setting: second compound 1 µM, first compound 10 µM.
Where [24] appears, read: second compound 3.16 µM, first compound 0.0316 µM.
[25] abbreviates: second compound 3.16 µM, first compound 0.1 µM.
The mark [26] stands for this setting: second compound 3.16 µM, first compound 0.316 µM.
Setting [27] is: second compound 3.16 µM, first compound 1 µM.
The mark [28] stands for this setting: second compound 3.16 µM, first compound 3.16 µM.
Setting [29] is: second compound 3.16 µM, first compound 10 µM.
Setting [30] is: second compound 10 µM, first compound 0.0316 µM.
The mark [31] stands for this setting: second compound 10 µM, first compound 0.1 µM.
The mark [32] stands for this setting: second compound 10 µM, first compound 0.316 µM.
Setting [33] is: second compound 10 µM, first compound 1 µM.
The mark [34] stands for this setting: second compound 10 µM, first compound 3.16 µM.
Setting [35] is: second compound 10 µM, first compound 10 µM.
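Note: spheroids exposed to compounds for seven days before readout.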

On to `CC(C)NCC(C(=O)N1CCN(c2ncnc3c2C(C)CC3O)CC1)c1ccc(Cl)cc1` (configuration not stated) + C=CC(=O)N1CCN(c2nc(=O)n(-c3c(C)ccnc3C(C)C)c3nc(-c4c(O)cccc4F)c(F)cc23)C(C)C1, for which the IC50 (commonly the concentration that inhibits the measured activity by half) is 0.287 µM under setting [1]; 0.275 µM under setting [2]; 0.184 µM under setting [3]; 0.107 µM under setting [4]; less than 0.0316 µM under setting [5]. The viability, T/C – broadly, the ratio of treated to control – under setting [6] is 101%; the viability, T/C under setting [7] is 79.6%; the viability, T/C under setting [8] was 44.7%; the viability, T/C under setting [9] was 26.6%; the viability, T/C under setting [10] was 14.2%; the viability, T/C under setting [11] is 7.87%. The viability, T/C is 87.2% under setting [12]; 80.5% under setting [13]; 40.6% under setting [14]; 27% under setting [15]; 14.1% under setting [16]; 6.33% under setting [17]. Also, the viability, T/C under setting [18] was 89.1%; the viability, T/C under setting [19] was 73.1%; the viability, T/C under setting [20] was 28.9%; the viability, T/C under setting [21] is 15.6%; the viability, T/C under setting [22] was 12.7%; the viability, T/C under setting [23] is 5.98%. The viability, T/C was 61.1% under setting [24]; 52.9% under setting [25]; 23.3% under setting [26]; 15.2% under setting [27]; 9.31% under setting [28]; 5.92% under setting [29]. Also, the viability, T/C is 35.1% under setting [30]; 18.2% under setting [31]; 15.9% under setting [32]; 9.76% under setting [33]; 7.72% under setting [34]; 5.23% under setting [35].

Take `C=CC(=O)N1CCN(c2nc(OCC3CCCN3C)nc3c2CCN(c2cccc4cccc(C)c24)C3)CC1CC#N` (configuration not stated): the IC50 was 1.47 µM [middle of 5 runs] (compound alone, run of 07/19/2021) and 1.33 µM [middle of 5 runs] (compound alone, run of 07/26/2021).

As for `COc1cc2nccc(Oc3ccc(NC(=O)C4(C(=O)Nc5ccc(F)cc5)CC4)cc3)c2cc1OC` + COc1cc2nc(C)nc(NC(C)c3cc(N)cc(C(F)(F)F)c3)c2cc1OC1CCOC1, the IC50 is 0.936 µM under setting [1]; 0.732 µM under setting [2]; 0.656 µM under setting [3]; 0.611 µM under setting [4]; less than 0.0316 µM under setting [5]. The viability, T/C runs as follows: under setting [6], 111%; under setting [7], 107%; under setting [8], 81.8%; under setting [9], 9.71%; under setting [10], 21.9%; under setting [11], 113%. Also, the viability, T/C reads like this: under setting [12], 102%; under setting [13], 97.3%; under setting [14], 71.2%; under setting [15], 8.51%; under setting [16], 15.3%; under setting [17], 103%. Besides, the viability, T/C was 109% under setting [18]; 97.7% under setting [19]; 65.4% under setting [20]; 8.96% under setting [21]; 12.7% under setting [22]; 102% under setting [23]. Further, the viability, T/C under setting [24] is 98.4%; the viability, T/C under setting [25] is 85.6%; the viability, T/C under setting [26] was 72.6%; the viability, T/C under setting [27] was 6.65%; the viability, T/C under setting [28] was 2.1%; the viability, T/C under setting [29] was 90.6%. The viability, T/C runs as follows: under setting [30], 44.6%; under setting [31], 11.7%; under setting [32], 7.86%; under setting [33], 0.78%; under setting [34], 0.14%; under setting [35], 61.9%.
